In brackets after ≈: the same amount, converted by molar mass. Several values for one entry are separate records, joined by “and”; a condition that tells them apart may be missing. Identical values can stand only once.
Legend:
Trypanosoma cruzi = assay: DNDI: Inhibition of Chagas Disease parasite Trypanosoma cruzi (Tulahuen LacZ, Clone C4), in vitro.; format: functional, organism-based
[1] = (§1) DNDI: Cytotoxicity against L929 mouse fibroblasts, CYTO-SP, 24 hour; format: toxicity, cell-based; settings: mouse, L929 mouse fibroblasts
[2] = DNDI: Cytotoxicity against L-6 rat myoblasts from skeletal muscle cells; format: toxicity, cell-based, L6; settings: L-6 rat skeletal muscle myoblasts
[3] = DNDI: Cytotoxicity against L929 mouse fibroblasts, 72 hour.; format: toxicity, cell-based; settings: mouse, L929 mouse fibroblasts
Trypanosoma brucei [4] = assay: DNDI: Inhibition of Human African Trypanosomiasis, Cross 22, in vitro; format: functional, organism-based
Trypanosoma brucei [5] = assay: DNDI: Inhibition of Human African Trypanosomiasis, EATRO 110, in vitro; format: functional, organism-based
[6] = test system: Trypanosoma brucei rhodesiense; assay: DNDI: Inhibition of Human African Trypanosomiasis (HAT), STIB 900, in vitro; format: functional, organism-based
Leishmania donovani = assay: DNDI: Inhibition of formation of Leishmania donovani (strain MHOM/ET/67/L82) axenic amastigotes, in vitro.; format: functional, organism-based
[7] = DNDI: Lipophilicity measured in Chromatographic hydrophobicity index (CHI) assay, pH 7.4; format: physicochemical; settings: buffer
Plasmodium falciparum = assay: DNDI: Inhibition of the malaria parasite Plasmodium falciparum, in vitro; format: functional, organism-based; settings: K1
[8] = DNDI: half life in human liver microsomes at a concentration of 10uM; format: ADME, Microsome
[9] = DNDI: in vitro intrinsic clearance in human liver microsomes at a concentration of 10uM; format: ADME, Microsome
[10] = DNDI: in vitro intrinsic clearance in mouse liver microsomes at a concentration of 10uM; format: ADME, Microsome; settings: read-out: CLint in vitro
[11] = DNDI: half life in mouse liver microsomes at a concentration of 10uM; format: ADME, Microsome
MDR1 (ABCB1) [12] = biological target: T1, MDR1 (ABCB1) (Homo sapiens, UniProt P08183); assay: DNDI: % of compound recovered from apical to basolateral permeability assay in MDCK cells transfected with human MDR1; format: ADME, cell-based, Canis lupus familiaris; settings: dog
T1 sequence (P08183 whole entry): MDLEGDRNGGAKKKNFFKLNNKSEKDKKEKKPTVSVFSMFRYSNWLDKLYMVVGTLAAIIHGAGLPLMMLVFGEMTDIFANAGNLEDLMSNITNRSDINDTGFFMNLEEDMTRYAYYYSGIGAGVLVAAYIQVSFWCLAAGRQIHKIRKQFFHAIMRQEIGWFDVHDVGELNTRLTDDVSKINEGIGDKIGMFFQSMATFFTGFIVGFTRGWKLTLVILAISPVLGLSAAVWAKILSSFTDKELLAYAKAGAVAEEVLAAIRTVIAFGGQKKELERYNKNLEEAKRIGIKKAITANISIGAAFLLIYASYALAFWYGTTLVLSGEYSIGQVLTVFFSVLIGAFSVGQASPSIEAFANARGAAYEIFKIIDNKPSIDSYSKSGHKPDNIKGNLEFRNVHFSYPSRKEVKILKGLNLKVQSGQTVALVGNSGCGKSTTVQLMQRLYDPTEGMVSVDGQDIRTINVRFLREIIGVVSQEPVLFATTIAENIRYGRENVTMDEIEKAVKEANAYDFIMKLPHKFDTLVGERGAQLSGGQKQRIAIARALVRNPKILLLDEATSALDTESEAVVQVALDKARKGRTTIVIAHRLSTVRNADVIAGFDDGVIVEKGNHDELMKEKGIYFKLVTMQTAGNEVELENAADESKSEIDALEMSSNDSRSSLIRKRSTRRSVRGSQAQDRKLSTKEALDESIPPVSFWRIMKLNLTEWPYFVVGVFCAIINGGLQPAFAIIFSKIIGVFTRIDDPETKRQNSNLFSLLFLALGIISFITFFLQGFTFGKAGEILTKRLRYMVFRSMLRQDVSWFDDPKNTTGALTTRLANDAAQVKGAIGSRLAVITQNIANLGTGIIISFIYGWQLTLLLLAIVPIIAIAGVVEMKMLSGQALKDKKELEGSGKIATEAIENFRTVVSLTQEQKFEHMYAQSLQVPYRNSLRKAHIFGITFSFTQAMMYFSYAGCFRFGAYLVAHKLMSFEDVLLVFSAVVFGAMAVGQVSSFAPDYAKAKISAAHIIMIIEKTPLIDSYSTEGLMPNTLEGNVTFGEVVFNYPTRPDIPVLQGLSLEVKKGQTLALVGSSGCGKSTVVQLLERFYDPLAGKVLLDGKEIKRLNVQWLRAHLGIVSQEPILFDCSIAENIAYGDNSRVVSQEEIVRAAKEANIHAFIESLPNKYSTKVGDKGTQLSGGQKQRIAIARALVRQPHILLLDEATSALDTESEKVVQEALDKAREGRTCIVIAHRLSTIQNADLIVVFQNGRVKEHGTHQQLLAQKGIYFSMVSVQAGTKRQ

MDR1 (ABCB1) [13] = biological target: T1, MDR1 (ABCB1); assay: DNDI: Apparent permeability from apical to basolateral side of the MDCK cell transfected with human MDR1; format: ADME, cell-based, Canis lupus familiaris; settings: dog
MDR1 (ABCB1) [14] = biological target: T1, MDR1 (ABCB1); assay: DNDI: Apparent permeability from basolateral to apical side of the MDCK cell transfected with human MDR1 after 60 mins at a concentration of 3uM; format: ADME, cell-based, Canis lupus familiaris; settings: dog
MDR1 (ABCB1) [15] = biological target: T1, MDR1 (ABCB1); assay: DNDI: % of compound recovered from basolateral to apical permeability assay in MDCK cells transfected with human MDR1; format: ADME, cell-based, Canis lupus familiaris; settings: dog
MDR1 (ABCB1) [16] = biological target: T1, MDR1 (ABCB1); assay: DNDI: Efflux ratio for permeability from basolateral to apical side to apical to basolateral side of MDCK cells transfected with human MDR1; format: ADME, cell-based, Canis lupus familiaris; settings: dog, read-out: B-A/A-B
[17] = DNDI: Solubility in phosphate buffered saline at pH7.4 measured by optical density (turbidimetry) at room temperature (OD-RT); format: physicochemical; settings: pH 7.4
[18] = mouse, microsomes, 1 µM
Description: DNDI: in vitro intrinsic clearance in mouse liver microsomes at a concentration of 1uM

in vitro = settings: mouse, liver microsomes, t (1 / 2)
Description: DNDI: half life in mouse liver microsomes at a concentration of 1uM

Trypanosoma brucei [19] = assay: DNDI: Inhibition of Human African Trypanosomiasis, SBRI 427, in vitro; format: functional, organism-based
Trypanosoma brucei [20] = assay: DNDI: Mean survival time in days (MSD) of mice after intraperitoneal injection of Human African Trypanosomiasis (HAT), EATRO 110, at 0.5 mg/kg/day for 4 days.; format: functional, Mus musculus
Trypanosoma brucei [21] = assay: DNDI: Mean survival time in days (MSD) of mice after intraperitoneal injection of Human African Trypanosomiasis (HAT), EATRO 110, in vivo at 20 mg/kg/day for 4 days.; format: functional, Mus musculus
Trypanosoma brucei [22] = assay: DNDI: Mean survival time in days (MSD) of mice after intraperitoneal injection of Human African Trypanosomiasis (HAT), EATRO 110, in vivo at 1.25 mg/kg/day for 4 days.; format: functional, Mus musculus
Trypanosoma brucei [23] = assay: DNDI: Mean survival time in days (MSD) of mice after intraperitoneal injection of Human African Trypanosomiasis (HAT), EATRO 110, in vivo at 2.5 mg/kg/day for 4 days.; format: functional, Mus musculus
Trypanosoma brucei [24] = assay: DNDI: Mean survival time in days (MSD) of mice after intraperitoneal injection of Human African Trypanosomiasis (HAT), EATRO 110, in vivo at 12.5 mg/kg/day for 4 days.; format: functional, Mus musculus
Trypanosoma brucei [25] = assay: DNDI: Mean survival time in days (MSD) of mice after intraperitoneal injection of Human African Trypanosomiasis (HAT), EATRO 110, in vivo at 5 mg/kg/day for 4 days.; format: functional, Mus musculus
L929 = assay: as §1; format: toxicity, cell-based; settings: l929
[26] = DNDI: half-life in mouse S9 microsomes at a concentration of 1uM; format: ADME, subcellular, Liver, S9 fraction
[27] = DNDI: half-life in mouse S9 microsomes at a concentration of 10uM; format: ADME, subcellular, Liver, S9 fraction
MDR1 (ABCB1) [28] = biological target: T1, MDR1 (ABCB1); assay: DNDI: % of compound recovered from apical to basolateral permeability assay in MDCK cells transfected with human MDR1 after 60 mins at a concentration of 3uM; format: ADME, cell-based, Canis lupus familiaris; settings: dog
MDR1 (ABCB1) [29] = biological target: T1, MDR1 (ABCB1); assay: DNDI: Apparent permeability from apical to basolateral side of the MDCK cell transfected with human MDR1after 60 mins at a concentration of 3uM; format: ADME, cell-based, Canis lupus familiaris; settings: dog, MDCK-MDR1
MDR1 (ABCB1) [30] = biological target: T1, MDR1 (ABCB1); assay: DNDI: % of compound recovered from apical to basolateral permeability assay in MDCK cells transfected with human MDR1 after 60 mins at a concentration of 3uM in the presence of GF120918; format: ADME, cell-based, Canis lupus familiaris; settings: dog, MDCK-MDR1, with GF120918 (concentration not stated)
[31] = DNDI: Solubility in phosphate buffered saline at pH7.4 measured by nephelometry at room temperature (NEPH-RT); format: physicochemical; settings: pH 7.4
[32] = Trypanosoma brucei, SBRI 427, read-out: IC50

Compound: CCCCCC(C)NCc1coc(-c2ccc(OCC)cc2)n1 (stereo not drawn)
- IC50 (Trypanosoma cruzi): 7.7 µg/mL (≈ 24.3 µM)
- IC50 at 24 h [1]: > 50 µg/mL
- IC50 [2]: 8.28 µg/mL (≈ 26.2 µM)
- IC50 at 72 h [3]: 5.27 µg/mL (≈ 16.7 µM)
- IC50 (Trypanosoma brucei [4]): 0.67 µg/mL (≈ 2.12 µM)
- IC50 (Trypanosoma brucei [5]): 0.8 µg/mL (≈ 2.53 µM)
- IC50 [6]: 0.342 µg/mL (≈ 1.08 µM)
- IC50 (Leishmania donovani): 12.3 µg/mL (≈ 38.8 µM)
- chromatographic logD [7]: 4.95
- IC50 (Plasmodium falciparum): 1.38 µg/mL (≈ 4.36 µM)
- half-life at 10 µM [8]: 88 min
- CLint in vitro [9]: 33 µL/min/mg
- microsomal CLint at 10 µM [10]: 3 µL/min/mg
- half-life at 10 µM [11]: 882 min
- recovery (MDR1 (ABCB1) [12]): 33%
- Papp A→B (MDR1 (ABCB1) [13]): 20.9 ×10⁻⁶ cm/s
- Papp B→A at 1 h, 3 µM (MDR1 (ABCB1) [14]): 22 ×10⁻⁶ cm/s
- recovery (MDR1 (ABCB1) [15]): 56%
- efflux ratio (MDR1 (ABCB1) [16]): 1
- solubility kinetic [17]: 32 µM (≈ 10.1 µg/mL)
- CLint in vitro [18]: 36 µL/min/mg
- half-life at 1 µM (in vitro): 23 min

Compound: COc1ccc(/C(=N/O)NC2CCCCC2)cc1
- IC50 (Trypanosoma cruzi): > 30 µg/mL
- IC50 at 24 h [1]: > 50 µg/mL
- IC50 [2]: 58.3 µg/mL (≈ 235 µM)
- IC50 at 72 h [3]: > 10 µg/mL
- IC50 (Trypanosoma brucei [19]; [32]): 0.61 µg/mL (≈ 2.46 µM)
- IC50 [6]: 18.3 µg/mL (≈ 73.7 µM)
- MSD (Trypanosoma brucei [20]): 4 days
- MSD (Trypanosoma brucei [21]): 4.6 days
- MSD (Trypanosoma brucei [22]): 4 days
- MSD (Trypanosoma brucei [23]): 4 days
- MSD (Trypanosoma brucei [24]): 4 days
- MSD (Trypanosoma brucei [25]): 4.3 days
- IC50 (Leishmania donovani): 11.9 µg/mL (≈ 48 µM)
- chromatographic logD [7]: 3.82
- IC50 (Plasmodium falciparum): 4.7 µg/mL (≈ 18.9 µM)
- half-life at 10 µM [8]: 76 min
- CLint in vitro [9]: 38 µL/min/mg
- microsomal CLint at 10 µM [10]: 544 µL/min/mg
- half-life at 10 µM [11]: 5 min
- solubility kinetic [17]: 50 µM (≈ 12.4 µg/mL)
- CLint in vitro [18]: 329 µL/min/mg
- half-life at 1 µM (in vitro): 3 min

Compound: CCOc1ccc(-c2nc(CNC3CC(C)CC(C)(C)C3)co2)cc1 (stereo not drawn)
- IC50 at 24 h [1]: 44.1 µg/mL (≈ 129 µM)
- IC50 (L929): 29.3 µg/mL (≈ 85.6 µM)
- IC50 at 72 h [3]: < 3.13 µg/mL
- IC50 (Trypanosoma brucei [4]): 0.79 µg/mL (≈ 2.31 µM)
- IC50 (Trypanosoma brucei [5]): 1.03 µg/mL (≈ 3.01 µM)
- IC50 (Trypanosoma brucei [19]): 0.79 µg/mL and 1.06 µg/mL and 1.41 µg/mL and 0.84 µg/mL
- IC50 (Trypanosoma brucei [19]; [32]): 1.23 µg/mL (≈ 3.59 µM)
- CLint in vitro [18]: 50 µL/min/mg
- half-life at 1 µM (in vitro): 17 min

Compound: COc1ccccc1Oc1ncccc1/C(=N\O)NC1CCCCC1
- IC50 at 24 h [1]: > 50 µg/mL
- IC50 (Trypanosoma brucei [5]): 1.56 µg/mL (≈ 4.57 µM)
- IC50 (Trypanosoma brucei [19]; [32]): 0.78 µg/mL (≈ 2.28 µM)
- MSD (Trypanosoma brucei [20]): 4 days
- MSD (Trypanosoma brucei [21]): 4.3 days
- MSD (Trypanosoma brucei [22]): 4 days
- MSD (Trypanosoma brucei [23]): 4 days
- MSD (Trypanosoma brucei [24]): 4 days
- MSD (Trypanosoma brucei [25]): 4 days
- chromatographic logD [7]: 3.77
- microsomal CLint at 10 µM [10]: 138 µL/min/mg
- half-life at 10 µM [11]: 21 min
- recovery (MDR1 (ABCB1) [12]): 77%
- Papp A→B (MDR1 (ABCB1) [13]): 18.4 ×10⁻⁶ cm/s
- Papp B→A at 1 h, 3 µM (MDR1 (ABCB1) [14]): 48.3 ×10⁻⁶ cm/s
- recovery (MDR1 (ABCB1) [15]): 84%
- efflux ratio (MDR1 (ABCB1) [16]): 2.6
- solubility kinetic [17]: 25 µM (≈ 8.54 µg/mL)

Compound: Cc1cc(N2CCNCC2)n2nc(-c3cccc(F)c3)cc2n1
- IC50 at 72 h [3]: 9.09 µg/mL (≈ 29.2 µM)
- IC50 (Trypanosoma brucei [19]; [32]): > 5 µg/mL
- chromatographic logD [7]: 3.44
- half-life at 1 µM [26]: 45.7 min
- half-life at 10 µM [27]: 214 min
- recovery at 1 h, 3 µM (MDR1 (ABCB1) [28]): 70.4%
- Papp A→B at 1 h, 3 µM (MDR1 (ABCB1) [29]): 45.2 ×10⁻⁶ cm/s
- recovery at 1 h, 3 µM (MDR1 (ABCB1) [30]): 63.6%
- solubility kinetic [31]: 50 µM (≈ 15.6 µg/mL)

Compound: O/N=C(/NC1CCCCC1)c1cccnc1Oc1ccccc1Cl
- IC50 at 24 h [1]: > 50 µg/mL
- IC50 (Trypanosoma brucei [5]): 1.41 µg/mL (≈ 4.08 µM)
- IC50 (Trypanosoma brucei [19]; [32]): 0.95 µg/mL (≈ 2.75 µM)
- MSD (Trypanosoma brucei [20]): 4 days
- MSD (Trypanosoma brucei [21]): 4 days
- MSD (Trypanosoma brucei [22]): 4 days
- MSD (Trypanosoma brucei [23]): 4 days
- MSD (Trypanosoma brucei [24]): 4 days
- MSD (Trypanosoma brucei [25]): 4 days
- chromatographic logD [7]: 4.52
- microsomal CLint at 10 µM [10]: 211 µL/min/mg
- half-life at 10 µM [11]: 14 min
- recovery (MDR1 (ABCB1) [12]): 58%
- Papp A→B (MDR1 (ABCB1) [13]): 30.2 ×10⁻⁶ cm/s
- Papp B→A at 1 h, 3 µM (MDR1 (ABCB1) [14]): 34.8 ×10⁻⁶ cm/s
- recovery (MDR1 (ABCB1) [15]): 67%
- efflux ratio (MDR1 (ABCB1) [16]): 1.2
- solubility kinetic [17]: 4 µM (≈ 1.38 µg/mL)

From ChEMBL document CHEMBL1857833, “Screening and optimization of specific chemical series against human African Trypanosomiasis (HAT)”
